Where two headings read alike, the source gives them in different places. Ends that are not written are not given here. * marks the point of attachment. Biotin = O=C1N[C@H]2[C@H](CS[C@H]2CCCCC(=O)*)N1
Experiments:
[1] = tested on: angiogenesis in Matrigel plug; assay: Mouse Matrigel plug assay (FGF-induced angiogenesis, hemoglobin content); type: in vivo; conditions: for inhibition of angiogenesis / inhibition of angiogenesis in the Matrigel plug assay (in words): mouse Matrigel plug with FGF; for inhibition of angiogenesis: peptide in the plug versus FGF-only control plug, hemoglobin levels
Experimental: This assay takes advantage of the fact that Matrigel is liquid at 4° C. but becomes gel when warmed to 37° C. Thus when injected subcutaneously into the ventral region of a mouse, Matrigel solidifies and forms a so-called “Matrigel plug”. When angiogenic factors, such as FGF, are mixed with the Matrigel and injected, endothelial cells migrate into the gel plug and form functional vessels. The level of angiogenesis can then be assessed by measuring hemoglobin levels in the plugs, which are directly proportional to the extent of angiogenesis. Typically, two plugs are assayed in each mouse: one plug (control plug) contains FGF only and is used as control for angiogenesis, while the test plug contains FGF and an indicated amount of test peptide(s). In single-point assays, peptide concentration in the plug is 1 mM.
C57BL/6 female mice, 6-8 wks.
Basis FGF (bFGF) stock was prepared at 25 μg/ml in saline buffer +5% mouse serum albumin. The bFGF stock was added to Matrigel at 200 ng/ml. The mixture was left on ice for at least 3 hours before further use. For each mouse, 1 ml of such mixture was prepared, so that 0.5 ml of the mixture can be injected into each mouse to achieve about 100 ng/one side injection. If a test peptide were also to be added, for each mouse, 50 μl of 10 mM peptide (or 5 mM cRGD, positive control) was slowly added to Matrigel, swirling while adding. Per 5 mice, add 300 μl of peptide per 3 mls of Matrigel.
Syringes for injection were left on ice before injection. One syringe is used for each side of the group of 5 mice. About 1 ml of the mixture can be loaded at a time and injected into 2 mice using the Becton Dickinson 1 ml syringe for subcutaneous injection (26 gauge, ⅝ths, cat# 309597). Mice were anesthetized with isofluorane in a chamber, and were pulled out just as their breathing became slow. Injection were performed subcutaneously at inner thighs of the mice.
To determined the degree of angiogenesis, Matrigel plugs were dissected out, and placed in pre-weighed Falcon 5 ml snap-cap round bottomed tubes (polypropylene, Falcon cat# 352063). One ml of PBS was then added. The tubes were weighed with Matrigel plugs inside. The samples were kept at 4° C. until ready for hemoglobin assay.
Sonicate samples before measuring the hemoglobin content using the Plasma hemoglobin kit from Sigma.

[2] = tested on: aortic smooth muscle cells (AoSMC)
Excerpt: (§1) We developed a cell-based saturation ligand binding assay to measure the specific binding of the isolated EC binding peptides to human microvascular endothelial cells (HMVEC) and aortic smooth muscle cells (AoSMC). This assay allows the determination of the relative binding affinities of the isolated EC binding peptides. The assay is based on the highly sensitive fluorescence enhancement technique DELFIA® and coated microtitration plates. In this assay the synthetic peptides labeled with biotin at their amino terminus are incubated with fixed target cells in microtiter plate format. After incubation, the excess, unbound peptides are removed and europium labeled streptavidin added to the plates. After the removal of excess streptavidin, the europium is released and its fluorescence is measured.
(§2) Saturation ligand binding experiments measure specific ligand binding at equilibrium at various concentrations of the ligand. Binding curves are analyzed to determine binding site or receptor number and affinity. This curve is known as a rectangular hyperbola, binding isotherm, or saturation binding curve. This curve is determined by the following equation: […]
(§3) Y is zero initially, and increases to a maximum plateau value, Bmax. This equation describes the equilibrium binding of a ligand to a receptor as a function of increasing ligand concentration. X is the concentration of the ligand, and Y is the specific binding. Kd is the equilibrium dissociation constant, expressed in the same units as the X-axis (concentration). When the drug concentration equals Kd, half the binding sites are occupied at equilibrium.
(§4) Streptavidin-Eu^3+ reagent (cat # 1244-105), reagent diluent (cat # 1244-111), and Enhancement Solution (cat # 1244-105) were purchased from Perkin Elmer-Wallac (Turku, Finland), and the plates were read on Wallac Victor counter. The binding constants were calculated using the method of nonlinear regression analysis with the Prizm software (GraphPad Software, Inc.).
(§5) The HMVEC (human microvascular endothelial cell) and aortic smooth muscle cells (AoSMC) cells were purchased from Clonetics (San Diego, Calif.) and maintained according to the specifications of the supplier. In these experiments the cultures were used from passages 5 and 6 only.
(§6) The cultured subconfluent cells were trypsinized and resuspended in the culture media according to Clonetics instructions. The diluted suspension was dispensed into a reagent reservoir with magnetic stirring bar. 50 μl of the cell suspension was dispensed into each well of the 96-well plate with the Multidrop while stirring the suspension. The seeding density was 5*10^3 cells/well. The plates are incubated at 37° C. in the atmosphere containing 5% CO2 for 48 hours.
(§7) The cells were then washed three times with TBS with 0.01%Tween20 (wash buffer) and fixed with 2% formalin solution for fifteen minutes at 20° C. The cells were subsequently washed three times with wash buffer. The nonspecific sites on the plates were blocked by 300 μl of Pierce Casein Blocker per well for two hours at 20° C.
(§8) The saturation binding assay was performed by adding 50μl of the biotinylated peptide per well at increasing concentrations. The concentration was ranging from 1 nM to 10 μM. All measurements were performed in triplicates. Peptide dilutions were prepared from 10 mM DMSO stocks in wash buffer. The plates were incubated for one hour at room temperature and subsequently washed five times with wash buffer using Titertek automatic plate washer to remove any unbound peptide. The biotinylated peptide bound to the cells was then allowed to react for thirty minutes with 50 μl of 2000× dilution of the streptavidin-Eu^3+ reagent, diluted in the Wallac reagent diluent. Finally, after washing the unbound streptavidin-Eu^3+ reagent, 50 μl of Wallac Enhancement Solution per well was added to release the free Eu^3+ from its chelate form. Free Eu^3+ rapidly forms a highly fluorescent stable chelate with the components of the Enhancement solution. […]

[3] = tested on: human microvascular endothelial cells (HMVEC); conditions: Cell Type HMVEC; for Binding Affinity: equals Bmax/Kd; for Kd: fixed cells, biotinylated peptide 1 nM to 10 μM
Excerpt: as §1, §2, §3, §4, §5, §6, §7, §8

chicken aortic rings = assay: Aortic ring assay (chicken aortic rings in Matrigel, microvessel formation); type: cell-based; conditions: peptide 125 to 1000 μM, 2-3 days
Excerpt: The aortic ring assay is a widely used in vitro assay for angiogenesis. Typically, rat aortas are sliced crosswise and placed in Matrigel. After three to five days, microvessel sprouting can be roughly quantified by manual counting or by using image analysis. The aortic ring assay is low-cost, easy to use, and offers many assays from a single animal. A relatively new variant uses embryonic chick aortic arches (see Muthukkaruppan et al., Proceedings of the American Association for Cancer Research Annual Meeting, 2000).
In this experiment, chicken aortic rings are embedded in Matrigel (BD BioCoat™ Matrigel™ or other equivalent products) in optimized MCDB-131 media (Sigma product number: M8537, or equivalent products from other vendors). From endothelial cells (EC) in the aortic intima, a complex network of branching and anastomosing microvessels develop interspersed with fibroblast as individual cells. In this assay the ability of the identified EC-binding peptides is tested for their abilities to inhibit EC branching and microvessel formation.
Chicken aortic branches were dissected and cleaned from 15 day old chicken embryos, and were then rinsed well in cold PBS+Penicillin/Streptomycin (P/S) buffers. The arteries were then cut into about 1 mm rings using sterile razor blade, and the resulting rings were mounted in 10-20 μl of Matrigel (in a 48-well plate). Subsequently, 300 μl of MCDB-131 basal media+P/S containing the indicated amount of test peptide were added. The cultured rings were incubated at 37° C., with 5% CO2 for 2-3 days, and the extent of microvessel formation were evaluated as the end of the experiment.

Row | Substance | inhibition of angiogenesis [1] [%] | Binding Affinity [2] | Bmax (counts/cell) [2] [counts/cell] | binding to AoSMC (in words) [2] | Bmax (counts/cell) [3] [counts/cell] | Binding Affinity [3] | Kd [3] [nM] | inhibition of angiogenesis (microvessel formation) in the aortic ring assay (in words) (chicken aortic rings) | inhibition of angiogenesis in the Matrigel plug assay (in words) [1] | dose dependence of inhibition of angiogenesis ([1]; mouse Matrigel plug, three concentrations, n no less than 9) | Kd [2] [nM] | Bmax (counts/cell) ([2]; Cell Type AoSMC) | Binding Affinity ([2]; Cell Type AoSMC, equals Bmax/Kd) | Kd ([2]; Cell Type AoSMC, fixed cells, biotinylated peptide 1 nM to 10 μM) [nM] | binding to smooth muscle cells compared with endothelial cells [2]
1 | cRGD [reference compound] | 36 |  |  |  |  |  |  |  |  |  |  |  |  |  | 
2 | Biotin-GCDSHKRLKCG (cysteine pairing not given here) [9-G5] |  | −2.127 | 2.937 | do not bind | 10.1138 | 19.195 | 527 | tested positive | tested positive |  |  |  |  |  | 
3 | HTKQIPRHIYSA [1-H5] | 44 |  |  |  |  |  |  | tested positive | tested positive | linearly proportional to the concentration |  |  |  |  | 
4 | Biotin-GCMNQHSSACG (cysteine pairing not given here) [3-B5] |  | 85.24 | 8.354 |  | 3.817 | 394.75 | 9.7 |  |  |  | 98 |  |  |  | 
5 | Biotin-CDCRGDCFC-OH (cysteine pairing not given here) [reference compound] |  |  |  |  |  |  |  |  |  |  |  | 7.18 | 28.725 | 250 | 
6 | Biotin-GCTQMRTAYCG (cysteine pairing not given here) [7-D5] |  | 28.211 | 10.8332 |  | 11.0211 | 2.3116 | 4770 |  |  |  | 384 |  |  |  | binds better to smooth muscle cells than to endothelial cells
7 | Biotin-GCPTPHSGTCG (cysteine pairing not given here) [2-G9] | 57 | 57.639 | 8.519 |  | 5.15 | 166.12 | 31 | tested positive | tested positive |  | 148 |  |  |  | 
8 | Biotin-GCHSSTWRACG (cysteine pairing not given here) [2-C10] |  | −5.709 | 0.9694 | do not bind | 8.79 | 3.83 | 2290 | tested positive | tested positive |  |  |  |  |  | 

Source: patent publication US20030166004A1, “Endothelial-cell binding peptides for diagnosis and therapy” (priority 2001, published 2003)
